Key:
[1] = Tmax in human at 200 mg administered with fat meal every 12 hrs for 8 days measured on day 8; format: ADME, organism-based; details: in vivo
[2] = Terminal elimination half life in human at 200 mg administered with fat meal every 8 hrs for 8 days measured on day 8; format: ADME, organism-based; details: in vivo, read-out: beta t1/2 (converted)
[3] = Apparent oral clearance in human at 400 mg administered with fat meal daily for 8 days measured on day 1; format: ADME, organism-based; details: in vivo
[4] = system: Homo sapiens; experiment: Toxicity in human assessed as changes in hematology at 50 to 200 mg administered as single dose; format: organism-based; details: in vivo
[5] = Tmax in fasted human at 200 mg administered with fat meal as single dose; format: ADME, organism-based; details: in vivo
[6] = Terminal elimination half life in human at 100 mg administered with fat meal every 12 hrs for 8 days measured on day 1; format: ADME, organism-based; details: in vivo, read-out: beta t1/2 (converted)
[7] = Cmax in human at 100 mg administered with fat meal every 12 hrs for 8 days measured on day 1; format: ADME, organism-based; parameters: dose 100 mg; details: in vivo
[8] = Cmax in fasted human at 50 mg administered as single dose; format: ADME, organism-based; parameters: dose 50 mg; details: in vivo
[9] = Oral bioavailability in monkey; format: ADME, organism-based, Macaca mulatta; details: rhesus monkey, in vivo
[10] = Apparent oral clearance in human at 200 mg administered with fat meal every 12 hrs for 8 days measured on day 1; format: ADME, organism-based; details: in vivo
[11] = system: Homo sapiens; experiment: Toxicity in human assessed as adverse effect at 200 mg administered every 12 hrs for 8 days; format: organism-based; details: in vivo
[12] = Terminal elimination half life in fasted human at 50 mg administered as single dose; format: ADME, organism-based; details: in vivo, read-out: beta t1/2 (converted)
[13] = Cmax in fasted human at 200 mg administered as single dose; format: ADME, organism-based; parameters: dose 200 mg; details: in vivo
[14] = system: Homo sapiens; experiment: Toxicity in human assessed as changes in 12-lead ECG at 50 to 200 mg administered as single dose; format: organism-based; details: in vivo
[15] = system: Homo sapiens; experiment: Toxicity in human assessed as increase in LDL cholesterol level at 50 to 400 mg after sequential repeated dose administration for 8 days relative to basal level; format: organism-based; details: in vivo, 192 h
[16] = system: Homo sapiens; experiment: Toxicity in human assessed as adverse effect at 100 mg administered every 12 hrs for 8 days; format: organism-based; details: in vivo
[17] = Terminal elimination half life in fasted human at 200 mg administered as single dose; format: ADME, organism-based; details: in vivo, read-out: beta t1/2 (converted)
[18] = AUC (0 to infinity) in fasted human at 50 mg administered as single dose; format: ADME, organism-based; parameters: dose 50 mg, time infinity; details: plasma
[19] = Terminal elimination half life in human at 200 mg administered with fat meal every 12 hrs for 8 days measured on day 1; format: ADME, organism-based; details: in vivo, read-out: beta t1/2 (converted)
[20] = Apparent oral clearance in human at 400 mg administered with fat meal as single dose; format: ADME, organism-based; details: in vivo
[21] = system: Homo sapiens; experiment: Toxicity in human assessed as changes in 12-lead ECG at 50 to 400 mg after sequential repeated administration for 8 days; format: organism-based; details: in vivo, 192 h
[22] = Cmax in fasted human at 100 mg administered as single dose; format: ADME, organism-based; parameters: dose 100 mg; details: in vivo
[23] = Tmax in human at 100 mg administered with fat meal every 12 hrs for 8 days measured on day 1; format: ADME, organism-based; details: in vivo
[24] = system: Homo sapiens; experiment: Toxicity in human assessed as flatulence at 50 to 200 mg administered as single dose; format: organism-based; details: in vivo
[25] = system: Canis familiaris; experiment: Clearance in iv dosed dog assessed as liver blood flow; format: ADME, organism-based, Canis lupus familiaris; details: in vivo
[26] = Cmax in human at 50 mg administered with fat meal every 12 hrs for 8 days measured on day 8; format: ADME, organism-based; parameters: dose 50 mg; details: in vivo
[27] = AUC (0 to infinity) in human at 100 mg administered with fat meal every 12 hrs for 8 days measured on day 1; format: ADME, organism-based; parameters: dose 100 mg, time infinity; details: plasma
[28] = Plasma concentration in human at 200 mg administered with fat meal every 12 hrs for 8 days measured on day 1 after 12 hrs of first dose; format: ADME, organism-based
[29] = Tmax in human at 200 mg administered with fat meal every 12 hrs for 8 days measured on day 1; format: ADME, organism-based; details: in vivo
[30] = Tmax in human at 200 mg administered with fat meal every 8 hrs for 8 days measured on day 1; format: ADME, organism-based; details: in vivo
[31] = Terminal elimination half life in human at 200 mg administered with fat meal every 8 hrs for 8 days measured on day 1; format: ADME, organism-based; details: in vivo, read-out: beta t1/2 (converted)
[32] = system: Homo sapiens; experiment: Toxicity in human assessed as headache at 50 to 200 mg administered as single dose; format: organism-based; details: in vivo
[33] = Cmax in human at 200 mg administered with fat meal as single dose; format: ADME, organism-based; parameters: dose 200 mg; details: in vivo
[34] = system: Homo sapiens; experiment: Toxicity in human assessed as headache at 50 mg administered every 12 hrs for 8 days; format: organism-based; details: in vivo
[35] = system: Human immunodeficiency virus 1; experiment: Antiviral activity against HIV1 BaL in peripheral blood lymphocytes in presence of 100% human serum; format: functional, organism-based; details: Human immunodeficiency virus 1, BaL
[36] = AUC (0 to infinity) in human at 200 mg administered with fat meal as single dose; format: ADME, organism-based; parameters: dose 200 mg, time infinity; details: plasma
[37] = Tmax in human at 100 mg administered with fat meal every 12 hrs for 8 days measured on day 8; format: ADME, organism-based; details: in vivo
[38] = Terminal elimination half life in human at 200 mg administered with fat meal every 12 hrs for 8 days measured on day 8; format: ADME, organism-based; details: in vivo, read-out: beta t1/2 (converted)
[39] = AUC (0 to infinity) in human at 50 mg administered with fat meal every 12 hrs for 8 days measured on day 1; format: ADME, organism-based; parameters: dose 50 mg, time infinity; details: plasma
[40] = Plasma concentration in human at 100 mg administered with fat meal every 12 hrs for 8 days measured on day 1 after 12 hrs of first dose; format: ADME, organism-based
[41] = Apparent oral clearance in fasted human at 100 mg administered as single dose; format: ADME, organism-based; details: in vivo
[42] = Apparent oral clearance in human at 200 mg administered with fat meal every 12 hrs for 8 days measured on day 8; format: ADME, organism-based; details: in vivo
[43] = AUC (0 to 8 hrs) in human at 200 mg administered with fat meal every 8 hrs for 8 days measured on day 8; format: ADME, organism-based; parameters: time < 8 hr, dose 200 mg; details: plasma
[44] = species: Homo sapiens; experiment: Toxicity in human assessed as dizziness at 400 mg daily for 8 days; format: organism-based; details: in vivo, 192 h
[45] = Cmax in human at 200 mg administered with fat meal every 8 hrs for 8 days measured on day 1; format: ADME, organism-based; parameters: dose 200 mg; details: in vivo
[46] = system: Homo sapiens; experiment: Toxicity in human assessed as changes in continuous telemetry monitoring at 50 to 400 mg after sequential repeated administration for 8 days; format: organism-based; details: in vivo, 192 h
[47] = Cmax in human at 400 mg administered with fat meal as single dose; format: ADME, organism-based; parameters: dose 400 mg; details: in vivo
[48] = system: Homo sapiens; experiment: Toxicity in human assessed as diarrhea at 50 to 200 mg administered as single dose; format: organism-based; details: in vivo
[49] = Terminal elimination half life in human at 100 mg administered with fat meal every 12 hrs for 8 days measured on day 8; format: ADME, organism-based; details: in vivo, read-out: beta t1/2 (converted)
[50] = Tmax in fasted human at 100 mg administered as single dose; format: ADME, organism-based; details: in vivo
[51] = Tmax in fasted human at 400 mg administered as single dose; format: ADME, organism-based; details: in vivo
[52] = Plasma concentration in human at 200 mg administered with fat meal every 8 hrs for 8 days measured on day 1 after 12 hrs of first dose; format: ADME, organism-based
[53] = Cmax in human at 100 mg administered with fat meal every 12 hrs for 8 days measured on day 8; format: ADME, organism-based; parameters: dose 100 mg; details: in vivo
[54] = Terminal elimination half life in human at 200 mg administered with fat meal as single dose; format: ADME, organism-based; details: in vivo, read-out: beta t1/2 (converted)
[55] = system: Homo sapiens; experiment: Toxicity in human assessed as adverse effect at 50 mg administered every 12 hrs for 8 days; format: organism-based; details: in vivo
[56] = system: Human immunodeficiency virus 1; experiment: Antiviral activity against HIV1 BaL in peripheral blood lymphocytes; format: functional, organism-based; details: Human immunodeficiency virus 1, BaL
[57] = system: Homo sapiens; experiment: Toxicity in human assessed as changes in vital signs at 50 to 200 mg administered as single dose; format: organism-based; details: in vivo

- Tmax [1]: 3 h
- half-life [2]: 4 h
- CL/F [3]: 433 mL/min
- Tmax [5]: 4 h
- half-life [6]: 3.1 h
- Cmax [7]: 2.5 µg/mL
- Cmax [8]: 0.76 µg/mL
- bioavailability [9]: 6%
- CL/F [10]: 367 mL/min
- half-life [12]: 3.1 h
- Cmax [13]: 1.1 µg/mL
- half-life [17]: 5.3 h
- AUC(0-inf) [18]: 3.2 µg·h/mL
- half-life [19]: 3.9 h
- CL/F [20]: 783 mL/min
- Cmax [22]: 1 µg/mL
- Tmax [23]: 3.25 h
- QH [25]: 27.8%
- Cmax [26]: 1.4 µg/mL
- AUC(0-inf) [27]: 11 µg·h/mL
- concentration at 12 h [28]: 0.23 µg/mL
- Tmax [29]: 4 h
- Tmax [30]: 3.75 h
- half-life [31]: 3.7 h
- Cmax [33]: 1.3 µg/mL
- IC50 [35]: 0.042 µM
- IC90 [35]: 0.168 µM
- AUC(0-inf) [36]: 11 µg·h/mL
- Tmax [37]: 3.75 h
- half-life [38]: 2.8 h
- AUC(0-inf) [39]: 4 µg·h/mL
- concentration at 12 h [40]: 0.16 µg/mL
- CL/F [41]: 317 mL/min
- CL/F [42]: 350 mL/min
- AUC at 8 h [43]: 4.9 µg·h/mL
- Cmax [45]: 1.1 µg/mL
- Cmax [47]: 0.84 µg/mL
- half-life [49]: 4.2 h
- Tmax [50]: 2.5 h
- Tmax [51]: 2.2 h
- concentration at 12 h [52]: 0.13 µg/mL
- Cmax [53]: 2.6 µg/mL
- half-life [54]: 6.5 h
- IC50 [56]: 0.0012 µM
SMILES: Cn1c(=O)c(C(=O)NCCO)c(O)c2ncc(Cc3ccc(F)cc3)cc21 [GSK-364735]
- Activity [4]: Non-toxic
- Activity [11]: 25%
- Activity [14]: Non-toxic
- Activity [15]: 0.5 mg/dL
- Activity [16]: 38%
- Activity [21]: Non-toxic
- Activity [24]: 4%
- Activity [32]: 4%
- Activity [34]: 13%
- Activity [44]: Non-toxic
- Activity [46]: Non-toxic
- Activity [48]: 4%
- Activity [55]: 25%
- Activity [57]: Non-toxic

Reference: ChEMBL document CHEMBL1151440, “Safety and pharmacokinetics of GSK364735, a human immunodeficiency virus type 1 integrase inhibitor, following single and repeated administration in healthy adult subjects” (Antimicrob Agents Chemother, 2007)
